Test results from BindingDB's records for doi:10.1021/acsmedchemlett.0c00533 (Reaction Biology, 2021).

Target: Mitogen-activated protein kinase 14 (Homo sapiens, UniProt Q16539)
Assay: Inhibition of P38alpha (unknown origin)

Chain of Mitogen-activated protein kinase 14 (Q16539 whole entry): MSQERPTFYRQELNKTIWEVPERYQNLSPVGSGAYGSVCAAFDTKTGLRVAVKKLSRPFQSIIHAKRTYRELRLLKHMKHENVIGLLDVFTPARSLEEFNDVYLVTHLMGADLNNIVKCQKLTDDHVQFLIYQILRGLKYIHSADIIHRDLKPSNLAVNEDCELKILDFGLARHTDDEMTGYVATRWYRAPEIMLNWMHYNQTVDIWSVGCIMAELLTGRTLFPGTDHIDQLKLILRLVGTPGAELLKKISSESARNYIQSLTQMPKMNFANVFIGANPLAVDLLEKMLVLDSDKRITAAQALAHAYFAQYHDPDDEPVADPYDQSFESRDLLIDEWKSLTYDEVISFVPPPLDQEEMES

## O=C(Nc1cnn(-c2csc(C(=O)NC3CNC3)c2)c1)Nc1ccccc1Cl
  IC50: > 20 µM
